≈ marks a conversion by molar mass, not a printed value. Where a name gives a salt, the structure may show the parent alone.
What was measured:
Candida spp. = test system: Candida spp.; parameters: method as in earlier work; settings: printed in the Candida glabrata column; cited from earlier work
[1] = test system: Aspergillus niger (DSMZ-Nr. 1988); experiment: Agar diffusion assay; format: cell-based; settings: A. niger, GI = growth inhibition, read-out: diameter of zones of total inhibition
Method: (§1) The resulting compounds and known compounds, 1-undecylpiperidine (7) and 1-decylpiperazine (8a), as well as 1-methyl-4-undecylpiperazine (8b) (prepared in the same way), were tested in an agar diffusion assay against Gram-positive (Staphylococcus equorum (DSMZ-Nr. 20675), Streptococcus entericus (DSZM-Nr. 14446)) and Gram-negative bacteria (Escherichia coli (DSMZ-Nr. 426), Pseudomonas marginalis (DSMZ-Nr. 7527)), as well as the fungi Yarrowia lipolytica (DSMZ-Nr. 1345), Candida glabrata (DSMZ-Nr.11226), Aspergillus niger (DSMZ-Nr. 1988), and Hyphopichia burtonii (DSMZ-Nr. 70663) (Table 1).

[2] = test system: Candida glabrata (DSMZ-Nr.11226); experiment: Agar diffusion assay; format: cell-based; settings: Nakaseomyces glabratus, C. glabrata, GI = growth inhibition, read-out: diameter of zones of total inhibition
Method: as §1

[3] = test system: Escherichia coli (DSMZ-Nr. 426); experiment: Agar diffusion assay; format: cell-based; settings: E. coli, GI = growth inhibition, read-out: diameter of zones of total inhibition
Method: as §1

[4] = test system: Hyphopichia burtonii (DSMZ-Nr. 70663); experiment: Agar diffusion assay; format: cell-based; settings: H. burtonii, GI = growth inhibition, read-out: diameter of zones of total inhibition
Method: as §1

[5] = test system: Pseudomonas marginalis (DSMZ-Nr. 7527); experiment: Agar diffusion assay; format: cell-based; settings: P. marginalis, GI = growth inhibition, read-out: diameter of zones of total inhibition
Method: as §1

[6] = test system: Staphylococcus equorum (DSMZ-Nr. 20675); experiment: Agar diffusion assay; format: cell-based; settings: read-out: diameter of zones of total inhibition
Method: as §1

[7] = test system: Streptococcus entericus (DSZM-Nr. 14446); experiment: Agar diffusion assay; format: cell-based; settings: S. entericus, GI = growth inhibition, read-out: diameter of zones of total inhibition
Method: as §1

[8] = test system: Yarrowia lipolytica (DSMZ-Nr. 1345); experiment: Agar diffusion assay; format: cell-based; settings: Y. lipolytica, GI = growth inhibition, read-out: diameter of zones of total inhibition
Method: as §1

Candida glabrata = experiment: Microdilution assay (MIC); format: cell-based; settings: Nakaseomyces glabratus, hydrochlorides used, arithmetic average of two determinations, read-out: Minimal inhibitory concentration (MIC)
Method: (§2) For comparison, the N-undecylperhydroisoquinoline (C) was also tested here. For solubility reasons, the hydrochlorides were used in this assay (Table 2).

Saccharomyces cerevisiae = experiment: Microdilution assay (MIC); format: cell-based; settings: hydrochlorides used, arithmetic average of two determinations, read-out: Minimal inhibitory concentration (MIC)
Method: as §2

Yarrowia lipolytica = experiment: Microdilution assay (MIC); format: cell-based; settings: hydrochlorides used, arithmetic average of two determinations, read-out: Minimal inhibitory concentration (MIC)
Method: as §2

Δ8,7-isomerase [9] = target: T1, Δ8,7-isomerase (Saccharomyces cerevisiae, UniProt P32352); experiment: Whole-cell assay for identification of the target enzyme in ergosterol biosynthesis (sterol pattern by GLC-MS); format: cell-based; settings: Candida glabrata and Saccharomyces cerevisiae incubated with test compound, lichesterol accumulation indicates Δ8,7-isomerase inhibition
T1 construct: whole-cell assay for identification of the target enzyme in ergosterol biosynthesis; endogenous in cells; host or cells: Saccharomyces cerevisiae and Candida glabrata whole cells
Method: The compounds 5c and 7 were also subjected to our whole-cell assay for identification of the target enzyme in ergosterol biosynthesis. In this assay, the strains Candida glabrata and Saccharomyces cerevisiae were incubated with the test compounds, and after cell lysis, the changes in the sterol pattern were analyzed by GLC-MS. The accumulation of the Δ8(9)-sterol lichesterol (ergosta-5,8,22-trien-3β-ol) clearly indicates an inhibition of the enzyme Δ8,7-isomerase.

Δ8,7-isomerase [10] = test system: Δ8,7-isomerase; parameters: method as in PMID 24464607; settings: cited from earlier work
[11] = test system: human leukemia cell line (HL 60); experiment: MTT test (cytotoxicity); format: cell-based; settings: HL 60 cell line, arithmetic average of three determinations
Method: The cytotoxicity of the compounds 3a–d, 5a–d, and 8b was determined in an MTT test against a human leukemia cell line (HL 60).

T1 sequence (P32352 whole entry, stated change not applied): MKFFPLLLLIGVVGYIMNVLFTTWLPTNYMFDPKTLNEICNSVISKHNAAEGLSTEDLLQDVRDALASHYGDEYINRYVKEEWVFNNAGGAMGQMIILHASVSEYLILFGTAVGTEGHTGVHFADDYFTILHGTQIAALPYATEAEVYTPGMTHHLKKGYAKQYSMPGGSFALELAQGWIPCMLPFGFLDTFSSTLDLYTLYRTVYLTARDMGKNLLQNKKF

Compound	MIC90 Candida spp. (Candida spp.)	zone of inhibition at 50 µg/disc [1] [mm]	zone of inhibition at 50 µg/disc [2] [mm]	zone of inhibition at 50 µg/disc [4] [mm]	zone of inhibition at 50 µg/disc [8] [mm]	MIC (Candida glabrata) [µg/mL]	MIC (Saccharomyces cerevisiae) [µg/mL]	MIC (Yarrowia lipolytica) [µg/mL]	change in sterol pattern / target enzyme in ergosterol biosynthesis (Δ8,7-isomerase [9])	other results
nystatine B	4 (MIC90 Candida spp.) [17] µg/mL	–	–	–	–	–	–	–	–	–
CCCCCCCCCCCN1CCCCC1 [Compound 7, 1-undecylpiperidine, reference compound]	–	0	8	12	22	12.5 (≈ 52.2 µM)	1.75 (≈ 7.31 µM)	7.5 (≈ 31.3 µM)	accumulation of lichesterol	zone of inhibition at 50 µg/disc [3]: 7 mm; zone of inhibition at 50 µg/disc [5]: 8 mm; zone of inhibition at 50 µg/disc [6]: 13 mm; zone of inhibition at 50 µg/disc [7]: 17 mm
Clc1ccccc1C(c1ccccc1)(c1ccccc1)n1ccnc1 [clotrimazole, reference compound]	1 (MIC90 Candida spp.) [17] µg/mL	15	13	25	15	–	–	–	–	–
CCCCCCCCCCCN1CC[C@H]2CCCC[C@@H]2C1 (relative stereo) [C, N-n-undecyl-trans-decahydroisoquinoline, reference compound]	–	–	–	–	–	5 (≈ 17 µM)	0.1 (≈ 0.341 µM)	1.75 (≈ 5.96 µM)	–	antifungal mechanism (enzyme inhibited) (Δ8,7-isomerase [10]): potent antifungal inhibiting the enzyme Δ8,7-isomerase
OC(Cn1cncn1)(Cn1cncn1)c1ccc(F)cc1F [fluconazole]	32 (MIC90 Candida spp.) [17] µg/mL	–	–	–	–	–	–	–	–	–
CCCCCCCCCCCN1CCC[C@@H]2CCCC[C@H]21 (racemic) [Compound 5c, (±)-trans-1-Undecyldecahydroquinoline hydrochloride]	–	–	–	–	–	25	0.25	5	accumulation of lichesterol	IC50 [11]: 7 µM; change in sterol pattern / target enzyme in ergosterol biosynthesis (Δ8,7-isomerase [9]; listed as N-undecylperhydroquinoline): inhibitor of Δ8,7-isomerase
